This passage reports condition of mice, body weight and livers after euthanasia results from US9790286B2, “Stereoisomer peptides, their polymer conjugates, their encapsulation into nanoparticles, and uses thereof for the treatment of diseases caused by abnormal angiogenesis” (priority 2013, dated 2017).

One data set has as its system PANC-1 Xenograft. Description: PANC-1 xenograft mouse model of pancreatic ductal carcinoma. Format: in vivo. The following applies: 120 mg/Kg i.p. twice a week for 6 weeks. The protocol:
(§1) Peptides in their stereoisomer forms were tested in vivo using two mouse models of human pancreatic ductal adenocarcinoma: the PANC-1 Xenograft mouse model and the MiaPaca-2 Xenograft mouse model. Athymic male nude mice (nu/nu) were injected s.c. with cultured […] human pancreatic cancer cells from each different model in the right mice flanks After tumors reached ˜150 mm^3 mice were randomly separated into three groups (n=3/group). Group 1 was treated with vehicle; Group 2 was treated with 120 mg/Kg Gemcitabine (standard established dose); and Group 3 was treated with 25 mg/kg of a combination of four stereoisomer peptides. Mice were dosed by i.p. injection twice a week for 6 weeks.

Another data set concerns MiaPaca-2 Xenograft. Briefly: MIAPaCa-2 xenograft mouse model of pancreatic ductal carcinoma. It counts as in vivo. The following applies: 120 mg/Kg i.p. twice a week for 6 weeks. The protocol:
as §1
In this model the tumors of treated mice grew slowly compared to untreated mice (see FIG. 14A). […] These two human mouse models confirm the therapeutic potency, efficacy, and value of the stereoisomer peptides to treat pancreatic cancer, one of the deadliest cancers for which there are no therapies.

For `Nc1ccn([C@@H]2O[C@H](CO)[C@@H](O)C2(F)F)c(=O)n1` [Gemcitabine], in the data set on PANC-1 Xenograft, the condition of mice entry is listed as “moribund”. In the data set with MiaPaca-2 Xenograft, the body weight entry was “lost body weight”, the condition of mice entry is “moribund” and the livers after euthanasia entry is “dark with signs of necrosis”.
